Legend:
[1] = cited from earlier work
[2] = system: SOD1^G93A transgenic mice; settings: cited from earlier work
[3] = system: xCT mRNA in primary rat microglial cells; assay: qPCR of xCT mRNA in primary microglia; type: cell-based; settings: control gene gamma-actin
Experimental: (§1) Following 24 hours, cells were then mixed and aliquoted in to 96 wells at 7,000-20,000 cells per well in fresh media, either complete media (microglia) or minimal media (100 mL Neurobasal Media (#12348-017, Life Tech) supplemented with 1 mL N2 supplement (#17502-048, Life Tech) and 0.5 mM GlutaMax (#35050-061, Life Tech). Compounds to be tested were then added at the indicated concentrations and cells harvested 18 hours later by centrifugation at 2000×g, 5 minutes at 4° C. mRNA was isolated from the cells by use of the Purelink microscale RNA extraction kit (Catalog #12183016, Life Technologies) kit and the mRNA resuspended in 12-22 μl of RNase-free water according to the manufacturer's instructions. cDNA was prepared by use of the Superscript VILO kit (Catalog #11755050, Life Technologies) according to the manufacturer's instructions. The cDNA was eluted in a final volume of 20 μl RNase-free water and 4 μl was used for each qPCR reaction. For the real-time qPCR reactions, primers and reagents were supplied by Life Technologies and used according to the manufacturer's instructions. The detection molecule was the TaqMan probe with FAM dye label on 5′ end that binds to non-labeled primer pairs. The qPCR machine was a model 7500 Fast Real Time machine from ABI and used according to the manufacturer's instructions. 4 μl of the cDNA reaction was used for each qPCR reactions in a final volume of 20 μl. […] mRNA levels were quantitated by measuring the Cycle threshold (Ct) for each qPCR reaction using the standard algorithm supplied with the ABI 7500 Fast qPCR machine without modification. The Ct is defined as the number of cycles required for the fluorescent signal to cross the threshold (e.g. exceeds background level). […] The Cycle threshold is abbreviated Ct. The change in Ct equals [Ct (minus test agent)−Ct (plus test agent)]. Changes in Ct of the test genes xCT and IL1-beta are normalized by subtracting the change in Ct of the control gene, either gamma-actin or Hypoxanthine-guanine phosphoribosyl transferase (HPRT). […] Using the methods described in Example 11, various agents reported to cause activation of neuroinflammatory cells and/or known to cause or reflect damage to neurons, axons and/or oligodendrocytes were tested for their effect on xCT levels in primary rat microglia.

[4] = system: IL1-beta mRNA in primary rat microglial cells; assay: qPCR of IL1-beta mRNA in primary microglia; type: cell-based; settings: control gene gamma-actin
Experimental: as §1

[5] = system: xCT mRNA in primary rat astrocyte cells; assay: qPCR of xCT mRNA in primary astrocytes; type: cell-based; settings: astrocyte media, control gene gamma-actin
Experimental: (§2) Primary rat astrocyte cells were purchased from All Cells (Catalog #RCTX-001F, Alameda, Calif.), thawed and resuspended in 13.4 ml of DMEM media (Catalog #12-614F, Lonza, Allendale, N.J.) supplemented with 15% v/v FBS (Catalog #F4135, Sigma-Aldrich, St. Louis, Mo.) and 560 μL aliquoted into wells in a 24-well plate. Cells were incubated at 37° C. with 5% CO2. For each qPCR experiment, 2-3 wells (approximately 42,000-63,000 cells) were transferred to a new 24-well plate with fresh astrocyte media, composed of 50% v/v DMEM, 50% v/v Neurobasal media (Catalog #12348-017), Life Technologies, supplemented with 2 mM glutamine, 300 μM L-cystine. Following 24 hours, cells were then mixed and aliquoted into 24 well plates at approximately 10,000 cells per well in the same media. Compounds to be tested were then added at the indicated concentrations and cells harvested 18 hours later by washing once with PBS (Catalog #P5493, Sigma-Aldrich) and then treated with 300 μl of StemProAccutase cell dissociation reagent (Catalog #A11105-01, Life Technologies) and incubated for 5-10 minutes at 37° C. PBS (300 μl) was added and the cells spun down in a microfuge for 5 minutes at 2,000×g at 4° C. The supernatant was removed and mRNA was isolated from the cells by using the Purelink microscale RNA extraction kit (Catalog #12183016, Life Technologies) according to the manufacturer's instructions. The mRNA resuspended in 12-22 μl of RNase-free water. cDNA was prepared by use of the Superscript VILO kit (Catalog #11755050, Life Technologies) according to the manufacturer's instructions. The cDNA was eluted in a final volume of 20 μl RNase-free water in and 4 μl was used for each qPCR reaction. qPCR reactions and primers were as described in Example 11.
(§3) To determine if tunicamycin increased levels of xCT mRNA, Tunicamycin (5 ng/ml) was added to the primary astrocyte cell cultures in astrocyte media. xCT gene expression was determined by qPCR after 18 hours of exposure to tunicamycin.
(§4) The Cycle threshold is abbreviated Ct. The change in Ct equals [Ct (minus test agent)−Ct (plus test agent)]. Changes in Ct of the test genes xCT and Lcn-2 are normalized by subtracting the change in Ct of the control gene, either gamma-actin or Hypoxanthine-guanine phosphoribosyl transferase (HPRT). Ct values are converted to absolute values by the formula: absolute value=2^^(normalized change in Ct). Absolute values are converted to percent change by multiplying the absolute value by 100.
(§5) Using the methods described in Example 11, various agents known to cause activation of neuroinflammatory cells and/or cause or reflect stress and damage to neurons, axons and/or oligodendrocytes were tested for causing an increase in xCT levels in primary rat astrocytes.

[6] = system: Lcn-2 mRNA in primary rat astrocyte cells; assay: qPCR of Lcn-2 mRNA in primary astrocytes; type: cell-based; settings: astrocyte media, control gene gamma-actin
Experimental: as §2, §3, §4, §5

[7] = for Cmax GB: pH 2; for AUC / Cmax IB: pH 5.5
xCT = molecular target: T1, xCT (Rattus norvegicus, UniProt A0A8I6AB70); assay: Extracellular glutamate from primary astrocytes (Amplex Red Glutamic Acid/Glutamate Oxidase Assay); type: cell-based; settings: TNF-alpha 100 μg/ml 18 hours in astrocyte media, no sulfasalazine
T1 construct: host or cells: primary rat astrocytes
Description: xCT is a cystine-glutamate exchange protein that imports extracellular cystine in exchange for exporting intracellular glutamate. xCT activity can be measured by measuring the level of the extracellular glutamate that is exported. For detection of extracellular glutamate, the Amplex Red Glutamic Acid/Glutamate Oxidase Assay Kit from Life Technologies (Catalog #A-1222, Grand Island, N.Y.) was used following the manufacturer's instructions. Fluorescence from the Amplex Red fluorophore is directly proportional to glutamate concentration and was detected on an Enspire plate reader (Perkin-Elmer (Model #2300, Santa Clara, Calif.) with excitation wavelength at 530 nm and detection wavelength at 590 nm according to the manufacturer's instructions.
Astrocytes were grown in 24-well microtiter plates at a density of approximately 10,000 cells/well in a total volume of 400 μl of astrocyte media. Cells were incubated 18 hours in either astrocyte media plus 100 μM cystine (Catalog #C8755; Sigma-Aldrich) or astrocyte media plus 100 μM cystine plus TNF-alpha (100 μg/ml). After 18 hours, the media was removed and the adherent astrocytes washed twice with PBS and then 400 μL of minimal media was added to the cells. The minimal media was EBSS (catalog #E3024, Sigma-Aldrich) supplemented with 100 μM cystine and 10 mM D-glucose (catalog #G8769, Sigma-Aldrich).
The top 25 μL of the supernatant was then transferred to a 0.5 ml microfuge tube and the aliquots frozen at −80.
For the glutamate assay, samples of the media were thawed, pipetted up and down to ensure mixing and 20 μl added to 80 μl of the Amplex Red assay mix in a 96-well microtiter plate (catalog #M4436, Greiner, Frickenhausen, Germany). The reactions were covered in aluminum foil and allowed to proceed for 30 minutes at 37° C. and then fluorescence measured as described above.
Concurrently with analysis of the astrocyte samples, a standard curve of the Amplex Red glutamate assay in the minimal media was prepared following the manufacturer's instructions and using known concentrations of glutamate: 0, 0.5, 1, 2 and 4 μM. Table 19 gives the numerical results of the standard curve assay and the results are depicted graphically in FIG. 17.

[8] = published results in the SOD1 mouse model
[9] = 100 ng/ml, complete media, 18 hours
[10] = 100 ng/ml, minimal media, 18 hours

T1 sequence (A0A8I6AB70 1-502): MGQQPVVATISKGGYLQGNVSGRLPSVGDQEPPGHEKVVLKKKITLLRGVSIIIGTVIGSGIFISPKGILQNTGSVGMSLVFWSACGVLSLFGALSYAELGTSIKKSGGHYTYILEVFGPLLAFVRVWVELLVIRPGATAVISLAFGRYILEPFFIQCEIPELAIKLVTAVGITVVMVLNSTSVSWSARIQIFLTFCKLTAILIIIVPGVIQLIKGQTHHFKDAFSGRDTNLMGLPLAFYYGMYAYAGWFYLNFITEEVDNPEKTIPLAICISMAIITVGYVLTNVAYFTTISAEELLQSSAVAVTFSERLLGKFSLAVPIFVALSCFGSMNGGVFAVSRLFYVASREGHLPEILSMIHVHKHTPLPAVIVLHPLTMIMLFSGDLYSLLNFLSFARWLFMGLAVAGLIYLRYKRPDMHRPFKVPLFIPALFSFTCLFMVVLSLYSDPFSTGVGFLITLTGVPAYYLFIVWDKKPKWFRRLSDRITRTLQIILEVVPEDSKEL
T1 sequence (Q794F9 whole entry partner): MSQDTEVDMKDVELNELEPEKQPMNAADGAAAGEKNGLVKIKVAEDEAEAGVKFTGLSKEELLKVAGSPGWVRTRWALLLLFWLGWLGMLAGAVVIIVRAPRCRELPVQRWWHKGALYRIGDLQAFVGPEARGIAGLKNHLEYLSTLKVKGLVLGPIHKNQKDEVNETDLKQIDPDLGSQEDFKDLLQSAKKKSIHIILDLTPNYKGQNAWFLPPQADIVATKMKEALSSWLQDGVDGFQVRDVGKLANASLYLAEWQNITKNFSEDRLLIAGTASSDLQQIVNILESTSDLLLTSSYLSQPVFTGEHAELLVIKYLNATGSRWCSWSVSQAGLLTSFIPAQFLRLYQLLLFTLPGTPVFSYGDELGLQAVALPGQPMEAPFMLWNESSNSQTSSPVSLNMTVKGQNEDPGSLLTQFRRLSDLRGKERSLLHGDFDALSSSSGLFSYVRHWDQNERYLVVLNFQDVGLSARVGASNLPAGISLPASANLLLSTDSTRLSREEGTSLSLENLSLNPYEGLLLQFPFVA

Nc1ccc(S(=O)(=O)Nc2ccccn2)cc1 [Sulfapyridine, sulfapyridine]
oral bioavailability (reaching the circulation following oral dosing) [1]: > 70%

Nc1nc2ccc(OC(F)(F)F)cc2s1 [riluzole]
increased lifespan after onset of neurological disease [2, 8]: 1% | increased absolute lifespan ([2]; same SOD1 model under similar conditions, Lincecum et al.): 1.6%

IFN-gamma: inflammatory cytokine
xCT, Change in Ct normalized to control gene ([3]; 30 ng/ml, complete media): 1.417 | xCT, Fold change normalized ([3]; 30 ng/ml, complete media): 2.7 | xCT, Percent change normalized ([3]; 30 ng/ml, complete media): 270% | xCT, Change in Ct normalized to control gene [3, 9]: 1.636 | xCT, Fold (absolute) change normalized [3, 9]: 3.1 | xCT, Percent change normalized [3, 9]: 311% | IL1-beta, Percent change normalized ([4]; 30 ng/ml, complete media): 2,043% | IL1-beta, Percent change normalized [4, 9]: 446%

Poly I/C
xCT, Change in Ct normalized to control gene [3, 9]: 6.186 | xCT, Fold (absolute) change normalized [3, 9]: 72.8 | xCT, Percent change normalized [3, 9]: 7,281% | xCT, Change in Ct normalized to control gene [3, 10]: 3.619 | xCT, Fold (absolute) change normalized [3, 10]: 12.3 | xCT, Percent change normalized [3, 10]: 1229% | IL1-beta, Percent change normalized [4, 9]: 1,900% | IL1-beta, Percent change normalized [4, 10]: 1,099% | xCT, Change in Ct normalized to control gene ([5]; 10 ug/ml): 1.471 | xCT, Fold change normalized ([5]; 10 ug/ml): 2.77 | xCT, Percent change normalized ([5]; 10 ug/ml): 277% | Lcn-2, Percent change normalized ([6]; 10 ug/ml): 76%

O=C(O)c1cc(/N=N/c2ccc(S(=O)(=O)Nc3ccccn3)cc2)ccc1O [Amorphous sulfasalazine, sulfasalazine]
Cmax GB [7]: 154 µg/mL | AUC [7]: 30,300 min * ug/mL | Cmax IB [7]: 372 µg/mL

TNF-alpha
xCT, Change in Ct normalized to control gene [3, 9]: 3.214 | xCT, Fold (absolute) change normalized [3, 9]: 9.3 | xCT, Percent change normalized [3, 9]: 930% | Calculated glutamate levels (xCT; 30 minutes in minimal media): 2.88 µM | Fluorescence units (xCT; 30 minutes in minimal media): 13398 | Calculated glutamate levels (xCT; 120 minutes in minimal media): 9.05 µM | Fluorescence units (xCT; 120 minutes in minimal media): 34307 | Calculated glutamate levels (xCT; 240 minutes in minimal media): 13.82 µM | Fluorescence units (xCT; 240 minutes in minimal media): 50468 | IL1-beta, Percent change normalized [4, 9]: 3,000% | xCT, Change in Ct normalized to control gene ([5]; 100 ng/ml): 1.376 | xCT, Fold change normalized ([5]; 100 ng/ml): 2.60 | xCT, Percent change normalized ([5]; 100 ng/ml): 260% | Lcn-2, Percent change normalized ([6]; 100 ng/ml): 244%

CC(C)Cc1ccc(C(C)C(=O)O)cc1 (stereo not shown) [ibuprofen]
decreased lifespan after onset of neurological disease [2, 8]: 10%

IL-17A: inflammatory cytokine
xCT, Change in Ct normalized to control gene ([3]; 10 ng/ml, complete media): 1.652 | xCT, Fold change normalized ([3]; 10 ng/ml, complete media): 3.1 | xCT, Percent change normalized ([3]; 10 ng/ml, complete media): 314% | xCT, Change in Ct normalized to control gene ([5]; 100 ng/ml): 0.351 | xCT, Fold change normalized ([5]; 100 ng/ml): 1.28 | xCT, Percent change normalized ([5]; 100 ng/ml): 128% | Lcn-2, Percent change normalized ([6]; 100 ng/ml): 123%

O=C(O)c1cc(/N=N/c2ccc(S(=O)(=O)Nc3ccccn3)cc2)ccc1O [Crystalline sulfasalazine, sulfasalazine]
Cmax GB [7]: 15 µg/mL | AUC [7]: 22,200 min * ug/mL | Cmax IB [7]: 282 µg/mL

B1: IL-4: anti-inflammatory cytokine, tested as a control (protein, UniProt P05112 25-153, looked up)
Interleukin-4: HKCDITLQEIIKTLNSLTEQKTLCTELTVTDIFAASKNTTEKETFCRAATVLRQFYSHHEKDTRCLGATAQQFHRHKQLIRFLKRLDRNLWGLAGLNSCPVKEANQSTLENFLERLKTIMREKYSKCSS
xCT, Change in Ct normalized to control gene [3, 9]: −0.147 | xCT, Fold (absolute) change normalized [3, 9]: 0.9 | xCT, Percent change normalized [3, 9]: 90% | xCT, Change in Ct normalized to control gene ([5]; 100 ng/ml): −0.097 | xCT, Fold change normalized ([5]; 100 ng/ml): 0.93 | xCT, Percent change normalized ([5]; 100 ng/ml): 93% | Lcn-2, Percent change normalized ([6]; 100 ng/ml): 103%

From patent US20200009118A1, “COMPOSITIONS AND METHODS FOR THE TREATMENTOF NEURODEGENERATIVE AND OTHER DISEASES” (Glialogix, Inc., priority 2017, published 2020)
